Assay results reported in patent US6369109B1, “Betulinic acid and derivatives thereof useful for the treatment of neuroectodermal tumor” (Deutsches Krebsforschungszentrum Stiftung des Offentlichen …, priority 1998, dated 2002).
Residues, ends and D or L forms follow the SMILES beside them. *: point of attachment. Cbz = O=C(OCc1ccccc1)*; CH2F = FC*

Test system: caspase-3, caspase-8 and PARP in cytosolic extracts of SHEP cells
Assay: Cell-free system of apoptosis: cleavage of caspases in cytosolic extracts by mitochondria
Type: biochemical, human
Conditions: for effect of inhibitor on caspase processing by supernatants from betulinic acid-treated mitochondria: 50 μM bongkrekic acid or 60 μM zVAD-fmk, FIG. 10A
Method: For determination of nuclear fragmentation, nuclei (10^3/μl) were incubated with mitochondria (1 μg/μl) in buffer D (10 mM HEPES, pH 7.4, 50 mM NaCl, 2 mM MgCl2, 5 mM EGTA, 1 mM DDT, 2 mM ATP, 10 mM phosphocreatine, 50 μg/ml creatine kinase, 10 μM cytochalasin B) for 2 h at 37° C. Nuclei were stained with propidium iodide ([…]) and analyzed by flow cytometry. For determination of caspase activation, cytosolic extracts (2 μg/μl) were incubated with mitochondria (1 μg/μl), cytochrome c (0.1-100 μM) or AIF-containing mitochondrial supernatant (0.5 μg/μl) in buffer D for 2 h at 37° C. Partially purified AIF (cytochrome c-free) was prepared as previously described (0.5 mg/ml, Susin et al., 1997, J. Exp. Med. 186, 5-37; Susin et al., 1996, J. Exp. Med. 184, 1331-41). Proteins were separated by 15% SDS-PAGE and Western blot analysis was performed as described above. To confirm equal loading of mitochondrial protein, all Western blots were also developed with an antibody directed against a 60 kDa mitochondrial antigen (data not shown).
SHEP cells transfected with bcl-2 or Bcl-XL or a neomycin resistance vector only were treated with 10 μg/ml betulinic acid for 16 h. Mitochondria were isolated and incubated with cytosolic extracts for 6 h in the presence or absence of 60 μM zVAD-fmk (left panel, cells). Alternatively, mitochondria isolated from untreated cells were incubated with 10 μg/ml betulinic acid or 5 mM atractyloside together with cytosolic extracts for 6 h in the presence or absence of 60 μMZ-VAD-fmk (right panel, mitos, Atra). Cytosolic extracts incubated with mitochondria isolated from untreated cells or with untreated mitochondria were used as control. 40 μg protein per lane isolated front cell lysates were separated by 15% SDS-PAGE. Immunodetection of caspases-3, -8 and PARP protein was performed by mouse anti-caspase-3 mAb, mouse anti-caspase-8 mAb, rabbit anti-PARP polyclonal antibody and ECL.
SHEP cells treated with 10 μg/ml betulinic acid for indicated times. Mitochondria were isolated and incubated with cytosolic extracts for 6 h. Western blot analysis was performed as described above.
Mitochondria isolated from SHEP cells transfected with bcl-2 or Bcl-XL or a neomycrn resistance vector only were treated with 10 μg/ml betulinic acid or 5 mM atractyloside for 0.5 h in the presence or absence of 50 μM bongkrekic acid or 60 μM zVAD-fmk. Mitochondrial supernatants obtained by high speed centrifugation were incubated with cytosolic extracts for 6 h at 37° C. Cytosolic extracts incubated with supernatants of untreated mitochondria were used as control. Western blot analysis was performed as described for FIG. 9A.
For determination of nuclear fragmentation, nuclei (10^3/μl) were incubated with mitochondria (1 μg/μl) in buffer D (10 mM HEPES, pH 7.4, 50 mM NaCl, 2 mM MgCl2, 5 mM EGTA, 1 mM DDT, 2 mM ATP, 10 mM phosphocreatine, 50 μg/ml creatine kinase, 10 μM cytochalasin B) for 2 h at 37° C. Nuclei were stained with propidium iodide ([…]) and analyzed by flow cytometry (Susin et al., 1997 Exp. Cell Res. 236:397-403). For determination of caspase activation, cytosolic extracts (2 μg/μl) were incubated with mitochondria (1 μg/μl), cytochrome c (10 μM) or AIF-containing mitochondrial supernatant (0.5 μg/μl) in buffer D for 2 h at 37° C. Proteins were separated by 15% SDS-PAGE and Western blot analysis was performed as described before.
SHEP cells transfected with Bcl-2 or Bcl-XL or a neomycin resistance vector only (Neo) were treated (Lanes+) with 0.5 μg/ml Doxo or 10 μg/ml Bet A for 16 h. Mitochondria were isolated and incubated with cytosolic extracts for 6 h. in the presence or absence of 60 μm Z-VAD.fmk. Western blot analysis was performed as described in FIG. 14A.

| SMILES | effect of inhibitor on caspase processing by supernatants from betulinic acid-treated mitochondria | caspase and PARP processing in cytosolic extracts by mitochondria from drug-treated cells (10 μg/ml betulinic acid or 0.5 μg/ml doxorubicin 16 h, extracts 6 h, FIG. 9A, 15A) | effect of inhibitor on cleavage of caspases by mitochondria from drug-treated cells (60 μM zVAD-fmk, FIG. 9A, 15A) |
| --- | --- | --- | --- |
| CO[C@H](C/C=C\C=C\CC/C=C/C[C@H](C)/C=C/C(=C\C(=O)O)CC(=O)O)/C(C)=C\C=C(/C)C(=O)O [bongkrekic acid] | inhibited | – | – |
| COc1cccc2c1C(=O)c1c(O)c3c(c(O)c1C2=O)C[C@@](O)(C(=O)CO)C[C@@H]3O[C@H]1C[C@H](N)[C@H](O)[C@H](C)O1 [doxorubicin] | – | induced cleavage of caspases-3, -8 and PARP | – |
| COC(=O)C[C@H](NC(=O)[C@H](C)NC(=O)[C@@H](NC(=O)OCc1ccccc1)C(C)C)C(=O)CF [zVAD-fmk, benzyloxycarbonyl-Val-Ala-Asp-Fluoromethylketone] (Cbz-Val-Ala-Asp(OMe)-CH2F) | inhibited | – | blocked |
